What all share (type): biochemical
In one assay the target is Human liver Cathepsin L (Homo sapiens (Human), UniProt P07711). Description: Cathepsin L inhibition, fluorometric Z-F-R-AMC assay. The note with it: 1 nM cathepsin L, 50 μM Z-F-R-AMC, pH 5.5, 5 min preincubation, 25° C. Here is the method: Human liver Cathepsin L (Sigma) was preincubated with test compounds at various concentrations for 5 minutes at 25° C. The assay was initiated by addition of substrate Z-Phe-Arg-aminomethylcoumarin (“Z-F-R-AMC” Bacchem) and the final assay conditions were 1 nM cathepsin L, 50 μM Z-F-R-AMC, 100 mM sodium acetate pH 5.5, 1 mM EDTA (Omnipure), 3 mM DTT (EMD), 0.01% BRIJ 35 (Sigma), and 2.0% DMSO (Acros). Test compounds were serially diluted with DMSO and water to include a final concentration range of 10 μM to 10 pM. The reaction was monitored fluorometrically for 5 minutes at 25° C. using black 96-well Corning 3686 assay microplates with a Thermo Fluoroskan Ascent FL microplate reader at excitation and emission filter wavelengths of 355 nm and 460 nm, respectively. Data were analyzed to determine IC50 values utilizing GraphPad Prism 4.03 software with a minimum of a triplicate on the same microplate.
Human liver Cathepsin L, sequence (P07711 114-333): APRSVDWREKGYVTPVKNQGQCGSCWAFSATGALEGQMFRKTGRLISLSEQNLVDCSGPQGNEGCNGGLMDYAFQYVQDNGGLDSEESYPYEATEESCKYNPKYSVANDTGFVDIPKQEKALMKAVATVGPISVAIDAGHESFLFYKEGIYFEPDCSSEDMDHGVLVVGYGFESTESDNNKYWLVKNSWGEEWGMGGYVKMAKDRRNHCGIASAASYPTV

Another assay deals with Human liver Cathepsin B (Homo sapiens (Human), UniProt P07858). In words: Cathepsin B inhibition, fluorometric Z-R-R-AMC assay. To be noted: 1.1 nM cathepsin B, 60 μM Z-R-R-AMC, pH 6.0, 5 min preincubation, 37° C. Here is the method:
Human liver Cathepsin B (Calbiochem) was pre-incubated with test compound at various concentrations for 5 minutes at 37° C. The assay was initiated by addition of substrate Z-Arg-Arg-aminomethylcoumarin (“Z-R-R-AMC” Bacchem) and the final assay conditions were 1.1 nM cathepsin B, 60 μM Z-R-R-AMC, 126 mM sodium potassium phosphate pH 6.0 (Fisher), 0.3 mM EDTA (Omnipure), 2.7 mM DTT (Omnipure), 0.004% BRIJ 35 (Sigma), and 2.0% DMSO (Acros) in a final volume of 200 μL. Test compounds were serially diluted with DMSO and 0.01% BRIJ 35 to include a final concentration range of 20 μM to 10 pM. The reaction was monitored fluorometrically for 5 minutes at 37° C. using black 96-well Corning 3686 assay microplates with a Thermo Fluoroskan Ascent FL microplate reader at excitation and emission filter wavelengths of 355 nm and 460 nm, respectively. Data were analyzed to determine IC50 values utilizing GraphPad Prism 4.03 software with a minimum of a triplicate on the same microplate.

Assay [1] concerns the target Cathepsin K (activated recombinant human procathepsin K) (Homo sapiens (Human), UniProt P43235). In words: Cathepsin K inhibition, fluorometric Z-F-R-AMC assay. The note with it: 1.5 nM cathepsin K, 50 μM Z-F-R-AMC, pH 5.5, 5 min preincubation, 25° C. The procedure:
Recombinant human procathepsin K was obtained from Enzo Life Sciences. Activation of the proenzyme was performed in 32.5 mM sodium acetate pH 3.5, EDTA 1 mM, NaCl 500 mM, human procathepsin K 5.5 μM, at room temperature. Activation times were optimized and varied between 35 and 150 minutes. Cathepsin K was preincubated with test compounds at various concentrations for 5 minutes at 25° C. The assay was initiated by addition of substrate Z-Phe-Arg-aminomethylcoumarin (“Z-F-R-AMC” Bacchem) and the final assay conditions were 1.5 nM cathepsin K, 50 μM Z-F-R-AMC, 150 mM sodium acetate pH 5.5, 2.5 mM EDTA (Omnipure), 2.5 mM DTT (EMD), 0.01% BRIJ 35 (Sigma), and 4.0% DMSO (Acros). Test compounds were serially diluted with DMSO and water to include a final concentration range of 10 μM to 10 pM. The reaction was monitored fluorometrically for 5 minutes at 25° C. using black 96-well Corning 3686 assay microplates with a Thermo Fluoroskan Ascent FL microplate reader at excitation and emission filter wavelengths of 355 nm and 460 nm, respectively. Data were analyzed to determine IC50 values utilizing GraphPad Prism 4.03 software with a minimum of a triplicate on the same microplate.

Consider ten molecules from patent publication US8877967B2, “Compositions and methods for inhibition of cathepsins” (OXiGENE, Inc., priority 2012, dated 2014).

Broadly, the IC50 is the midpoint of a concentration-inhibition curve.

Cathepsin K (activated recombinant human procathepsin K), sequence (P43235 115-329): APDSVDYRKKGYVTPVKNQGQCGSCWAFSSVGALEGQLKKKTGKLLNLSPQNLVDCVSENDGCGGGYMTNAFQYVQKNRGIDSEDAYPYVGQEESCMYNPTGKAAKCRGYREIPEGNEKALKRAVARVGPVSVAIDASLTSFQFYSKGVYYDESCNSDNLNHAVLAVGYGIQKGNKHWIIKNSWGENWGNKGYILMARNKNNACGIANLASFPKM

With `NC(=S)NN=C(c1ccccc1)c1cccc(C(O)c2ccccc2)c1` (stereo not drawn) [Compound 6, 3-Benzoyl benzhydrol thiosemicarbazone], the half-inhibitory concentration (IC50) is 23.8 nM against Human liver Cathepsin L and above 10000 nM against Human liver Cathepsin B.

As to `NC(=S)NN=C(c1ccccc1)c1cc(C(=O)c2ccccc2)cc(C(=O)c2ccccc2)c1` [Compound 25, 1,3,5-Tribenzoyl benzene thiosemicarbazone], the IC50 in assay [1] was determined as 2800 nM; at Human liver Cathepsin L, 25 nM.

As to `NC(=S)NN=C(c1ccccc1)c1cccc(C(=O)c2ccccc2)c1` [Compound 3, 3-benzoyl benzophenone thiosemicarbazone], the half-inhibitory concentration (IC50) is 17.4 nM in assay [1], 10.5 nM at Human liver Cathepsin L and above 10000 nM against Human liver Cathepsin B.

For the molecule `NC(=S)NN=C(c1ccc(Br)cc1)c1cccc(C(=O)c2ccc(Br)cc2)c1` [Compound 24, 1,3-bis-(4-bromobenzoyl)benzene thiosemicarbazone], the concentration for half-maximal inhibition (IC50) (in assay [1]; at Human liver Cathepsin L; against Human liver Cathepsin B) was above 10000 nM throughout.

For the molecule `CC(C)Oc1ccc(C(=O)c2cccc(C(=NNC(N)=S)c3ccc(OC(C)C)cc3)c2)cc1` [Compound 22, 1,3-bis-(4-isopropoxybenzoyl)benzene thiosemicarbazone], the 50% inhibitory concentration (IC50) against Human liver Cathepsin L and at Human liver Cathepsin B was above 10000 nM each time.

In the case of `NC(=S)NN=C(c1ccc(F)cc1)c1cccc(C(=O)c2ccc(F)cc2)c1` [Compound 13, 1,3-bis-(4-fluorobenzoyl)benzene thiosemicarbazone], the IC50 is 8500 nM in assay [1], 24.3 nM on Human liver Cathepsin L and above 10000 nM against Human liver Cathepsin B.

For the molecule `COc1ccc(C(=NNC(N)=S)c2cccc(C(=NNC(N)=S)c3ccc(OC)cc3)c2)cc1` [Compound 33, 1,3-bis-(4-methoxybenzoyl)benzene dithiosemicarbazone], the IC50 in assay [1] was 2100 nM; on Human liver Cathepsin L, 587 nM; on Human liver Cathepsin B it was above 10000 nM.

Turning to `NC(=S)NN=C(c1cc(Br)cc(C(=O)c2ccccc2F)c1)c1ccccc1F` [Compound 11, 1,3-bis(2-fluoro-benzoyl)-5-bromobenzene thiosemicarbazone], the results for the concentration for half-maximal inhibition (IC50) on Human liver Cathepsin L and against Human liver Cathepsin B were 8.12 nM and above 10000 nM, respectively.

As to `Cc1cccc(C(=O)c2cccc(C(=NNC(N)=S)c3cccc(C)c3)c2)c1` [Compound 9, 1-(3-methylbenzoyl),3-(3-methylbenzoyl)benzene thiosemicarbazone], the figures for the half-maximal inhibitory concentration (IC50) (in assay [1]; against Human liver Cathepsin L) were 1030 nM and 7820 nM, respectively.

In the case of `CC(C)Oc1ccc(C(=NNC(N)=S)c2cccc(C(=NNC(N)=S)c3ccc(OC(C)C)cc3)c2)cc1` [Compound 23, 1,3-bis-(4-isopropoxybenzoyl)benzene dithiosemicarbazone], the IC50 (in assay [1]; on Human liver Cathepsin L) was above 10000 nM each time.
